Experimental data published in ChEMBL document CHEMBL5543131, “Discovery of Highly Potent Solute Carrier 13 Member 5 (SLC13A5) Inhibitors for the Treatment of Hyperlipidemia” (J Med Chem, 2024).
Active and inactive are the calls of the source. The rule behind the calls is not given here.

Key:
AML12 [1] = test: Effect on lipid accumulation in oleic and palmitic acid induced mouse AML12 cells assessed as decrease in total cholesterol level; type: functional, cell-based; details: dose 3-30 µM
AML12 [2] = test: Effect on lipid accumulation in oleic and palmitic acid induced mouse AML12 cells assessed as decrease in triglyceride level; type: functional, cell-based; details: dose 3-30 µM
AML12 [3] = test: Effect on lipid accumulation in oleic and palmitic acid induced mouse AML12 cells assessed as decrease in triglyceride level at 3 to 30 uM; type: functional, cell-based; details: dose 3-30 µM
AML12 [4] = test: Effect on lipid accumulation in oleic and palmitic acid induced mouse AML12 cells assessed as decrease in total cholesterol level at 3 to 30 uM; type: functional, cell-based; details: dose 3-30 µM
[5] = tested on: O=C(O)CC(O)(CCc1ccc(-c2ccccc2)cc1)C(=O)O; test: Binding affinity to SLC13A5 (unknown origin) assessed as Km; details: Homo sapiens

Chain of Na(+)/citrate cotransporter (Homo sapiens), Q86YT5 (Q86YT5 whole entry): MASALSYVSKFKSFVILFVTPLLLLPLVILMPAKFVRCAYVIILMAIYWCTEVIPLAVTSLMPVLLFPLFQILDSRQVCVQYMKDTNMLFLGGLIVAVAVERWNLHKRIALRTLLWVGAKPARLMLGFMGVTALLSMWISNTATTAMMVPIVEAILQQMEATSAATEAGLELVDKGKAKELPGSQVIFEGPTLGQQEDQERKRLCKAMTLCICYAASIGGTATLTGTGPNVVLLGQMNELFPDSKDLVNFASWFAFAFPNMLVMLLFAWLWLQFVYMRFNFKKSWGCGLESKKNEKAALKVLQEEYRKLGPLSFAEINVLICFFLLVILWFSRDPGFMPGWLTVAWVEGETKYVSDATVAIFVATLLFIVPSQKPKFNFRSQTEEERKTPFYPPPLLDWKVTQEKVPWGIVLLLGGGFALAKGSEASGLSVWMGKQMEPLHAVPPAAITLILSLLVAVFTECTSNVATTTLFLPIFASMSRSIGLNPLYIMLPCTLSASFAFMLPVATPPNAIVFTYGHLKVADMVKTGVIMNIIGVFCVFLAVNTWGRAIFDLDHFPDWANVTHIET

Molecule: COc1ccccc1-c1ccc(CCC(O)(CC(=O)O)C(=O)O)cc1 (stereo unspecified)
- Activity (AML12 [1]): Dose-Dependent Effect
- Activity (AML12 [2]): Dose-Dependent Effect

Molecule: CC(C)(C)c1ccc(CC[C@@](O)(CC(=O)O)C(=O)O)cc1
- Activity (AML12 [3]): inactive
- Activity (AML12 [4]): inactive

Molecule: CCn1nccc1-c1ccc(CCC(O)(CC(=O)O)C(=O)O)cc1 (stereo unspecified)
- Activity (AML12 [1]): Dose-Dependent Effect
- Activity (AML12 [3]): inactive

Molecule: Na(+)/citrate cotransporter (Homo sapiens), Q86YT5
- Km [5]: 0.19 µM

Molecule: O=C(O)CC(O)(CCc1ccc2ccccc2c1)C(=O)O (stereo unspecified)
- Activity (AML12 [1]): Dose-Dependent Effect
- Activity (AML12 [2]): Dose-Dependent Effect

Molecule: O=C(O)CC(O)(CCc1nc2ccccc2s1)C(=O)O (stereo unspecified)
- Activity (AML12 [1]): Dose-Dependent Effect
- Activity (AML12 [3]): inactive
